Data as given in patent US12188086B2, “Nucleotide analogues and use thereof for nucleic acid sequencing and analysis preliminary class” (The Trustees of Columbia University in the City of New York, priority 2018, dated 2025).

Key:
Thermo Sequenase = Thermo Sequenase (Thermus aquaticus, UniProt P19821, F272M/F667Y); conditions: read-out: concentration that produces the half maximum fluorescent intensity; 0.3 μM single fluorescein labeled self-primed template, 10 pH dCTP, ddCTP 0 to 10 μM
Experimental: A. Varying concentrations of ddCTP (0 to 10 μM) were added to solutions containing Thermo Sequenase, 0.3 μM single fluorescein labeled self-primed template and 10 pH dCTP. […] B. The same experiments performed with the tagged ddCTP (0 to 5 μM) shown in FIG. 79 in the presence of the same template and 5 μM dCTP.
Extension reactions were prepared with the primer, Thermo Sequenase, dCTP and various dilutions of ddCTP or tagged ddCTP. First, a series of SBE reactions were carried out with final ddCTP concentrations ranging from 0 to 10 μM at a concentration of dCTP of 10 μM and 0.3 pH of labeled primer. Under these conditions, the primer is extended by the incorporation of dCTP until it encounters ddCTP incorporation. […] Fluorescence intensity was measured on a SpectraMax3 Microplate Reader (Molecular Devices, LLC).

[1] = THP cleavage of SS linker / 3′ blocking group on extended primer (MALDI-TOF MS); assay type: physicochemical
Experimental: Tris(hydroxypropyl)phosphine (THP) (1 μL, 1 mM) was added to the azo cleaved extended primer (9 μL, 15 μM) (E8TT+3′-O-t-butyl-SS-dTMP-PEG4-aniline, 6009.44 Da). […] After the spin column-based nucleic acid purification (ZymoPURE Oligo Clean & Concentrator), the product was confirmed by MALDI-TOF MS: 5881.4 Da (calc'd: 5874.9 Da). […]

[2] = test system: Therminator IX DNA polymerase; assay: Single base extension reaction, checked by MALDI-TOF MS; assay type: biochemical; parameters: efficiency of primer strand extension: concentration or dose not given beside the values; conditions: for efficiency of primer strand extension: no primer peak is visible
Experimental: A single base DNA extension reaction (SBE) was performed with 3′-O-SS (DTM)-dTTP-PEG4-Azo-Cy5, using a primer (5′-[…]-3′ [SEQ ID 1]) and a synthetic DNA template (5′-[…]-3′ [SEQ ID 2]) based on a portion of exon 8 of the human p53 gene as follows. The bold letters in the template represent the extension position for the primers. 2 μL of 10× concentrated buffer, 1 μL of primer, E8TT (MW: 5163, 100 μM), 3 μL of Exon 8 template (20 μM), 1 μL of nucleotide (3′-O-t-butyl-SS-dTTP-PEG4-Azo-Cy5, 432 μM), 1 μL of Therminator IX DNA Polymerase, T9 (10 U/λ) and 12 μL of dH2O were combined in a total volume of 20 μL. The reaction consisted of 38 cycles at 65° C. for 30 seconds and 45° C. for 30 seconds. Single base extension was confirmed by MALDI-TOF MS as indicated by the major peak at 6791.8 Da (calc'd, 6782.4 Da) in the spectrum.
Synthesized 3′-O-t-butyl-SS-dATP-PEG4-Azo-Biotin was used to perform a single-base extension reaction. The primer E8AA-6084 (5′-[…]-3′ at 6084 Da), exon 8 template (see sequence above) and Therminator IX DNA polymerase (T9) were added along with the modified nucleotides. In the 3′-O-t-butyl-SS-dATP-PEG4-Azo-Biotin (A7) incorporation reaction, the primer was extended to 7327.4 Da (expected, 7326.3 Da). No primer peak was detected using MALDI TOF MS after 38 cycles of reaction.
Extension reactions consisted of 3 μl template (60 μM), 1 μl primer (100 μM), 2 μl of one of the above ddNTP analogues (100 μM), 2 μl 10× Thermo Pol Buffer, 1 μl Therminator IX DNA polymerase (10 unit/μl) and 11 μl water. Extension was performed in a thermal cycler and consisted of 1 min denaturation at 65° C., followed by 38 cycles of 30 sec at 65° C., 30 sec at 45° C. and 30 sec at 65° C., with a final 3 min extension at 72° C., and storage at 4° C. Desalting was carried out using Oligo Clean & Concentrator (Zymo Research) according to the manufacturer's instructions prior to checking results of polymerase reaction by MALDI-TOF-MS.

[3] = Compatibility test: stability of SS linker on sodium dithionite treatment (MALDI-TOF MS); assay type: physicochemical; conditions: 25 mM Na2S2O4 in PBS pH 7.4, 30 min at 37° C.
Experimental: Disclosed herein are the results of a compatibility test was performed using 3′-O-SS-dATP-SS-Rox (cal: MW1344.36 Da, observed 1345.61) as model compound. 2 μl of 0.1 mM 3′-O-SS-dATP-SS-Rox was treated with 100 μL of freshly made 25 mM Na2S2O4 (in PBS buffer [pH 7.4]) and the mixture was kept shaking for 30 min at 37° C. Then desalination was carried out with a ZipTip, and the product was subjected to MALDI TOF MS measurement. […] The result proves that the disulfide linker is stable at much higher concentration of sodium dithionite and at longer reaction time than necessary to cleave the Azo linker.
An additional compatibility test was conducted on 3′-SS-dC extended ssDNA. The single base extension experiment was carried out by adding 20 pmol Exon 8 template, 60 pmol primer (M.W. 5144), 2 mM MnCl2 and 2 U Therminator 9 polymerase in 20 μl 1×Pol buffer in each PCR reaction tube which were subject to PCR thermocycles (65° C. for 30″ 45° C. for 30″, 38 cycles). After completion of the incorporation, NaS2O4 solution was added to the reaction tube to a final concentration of 20 mM and incubated at room temperature for 40 min. Then the reaction mixture was treated with a Clean & Concentrator column to purify ssDNA. The resulting oligonucleotide was subject to MALDI-TOF MS measurement. […]

[4] = Sodium dithionite cleavage of azo linker on single base extended primer (MALDI-TOF MS); assay type: physicochemical
Experimental: The azo cleavage reaction was performed on single base extended primer (E8TT+3′-O-t-butyl-SS-dTMP-PEG4-Azo-Cy5, 6782.4 Da). A 1M stock solution of Na2S2O4 was prepared in 1×PBS buffer (pH 7.4). 1.25 μL Na2S2O4 solution was added to the extended primer solution (20 μL, 32 μM) along with 28.75 μL of 1×PBS buffer. […] Afterwards, reaction mixtures were purified with a ZipTip and concentrated using a Speed Vac. The size of the cleaved extended primer was characterized by MALDI-TOF MS as 6009.44 Da (calc'd: 6008.9 Da).
Single base extended primers (6084ExAA+3′-O-t-butyl-SS-dAMP-PEG4-Azo-Biotin, 7327.4 Da) was treated with 25 mM sodium dithionite in 1×PBS buffer. […] The azo cleaved product reflects a molecular weight of 6951.1 Da which agrees with the expected value of 6952.3 Da. […]

[5] = 25 mM sodium dithionite at 45° C. for 1 minute

Chain of Thermo Sequenase (P19821 272-832 F272M/F667Y): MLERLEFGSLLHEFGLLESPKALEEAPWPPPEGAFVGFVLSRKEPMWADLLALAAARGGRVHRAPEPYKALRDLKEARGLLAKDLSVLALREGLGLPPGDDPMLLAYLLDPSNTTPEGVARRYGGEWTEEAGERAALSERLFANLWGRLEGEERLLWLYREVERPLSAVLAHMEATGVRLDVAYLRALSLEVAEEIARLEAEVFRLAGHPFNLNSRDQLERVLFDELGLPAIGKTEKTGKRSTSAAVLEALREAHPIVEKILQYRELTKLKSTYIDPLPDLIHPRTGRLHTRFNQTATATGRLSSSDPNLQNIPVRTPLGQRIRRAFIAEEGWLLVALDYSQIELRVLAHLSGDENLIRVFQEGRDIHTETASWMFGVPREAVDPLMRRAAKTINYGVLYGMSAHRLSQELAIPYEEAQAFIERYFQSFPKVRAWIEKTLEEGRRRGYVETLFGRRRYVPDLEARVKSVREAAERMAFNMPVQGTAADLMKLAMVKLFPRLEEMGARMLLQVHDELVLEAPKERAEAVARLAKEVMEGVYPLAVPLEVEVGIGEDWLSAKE

Nc1ccn([C@H]2CC[C@@H](COP(=O)(O)OP(=O)(O)OP(=O)(O)O)O2)c(=O)n1 [ddCTP]
IC50 (Thermo Sequenase): ~0.5 µM

ddCTP-5-SS-Biotin
cleavage of SS linker on extended primer ([1]; THP): complete cleavage
efficiency of primer strand extension [2]: ~100%

3′-O-SS-dATP-SS-Rox
integrity in the presence of Na2S2O4 [3]: no cleavage or degradation was observed

3′-O-t-Butyl-SS(DTM)-dTTP-PEG4-Azo-Cy5 [3′-O-t-butyl-SS-dTTP-PEG4-Azo-Cy5]
cleavage of azo linker on extended primer ([4]; 25 mM sodium dithionite at 37° C. for 20 minutes): complete cleavage
removal of 3′ blocking group ([1]; 1 mM THP for 5 minutes at 65° C.): removed the blocking group with high efficiency
incorporation rate ([2]; 38 cycles at 65° C. for 30 seconds and 45° C. for 30 seconds, no primer peak observed): 100%

ddGTP-7-SS-Cy5
efficiency of primer strand extension [2]: ~100%

ddTTP-5-Azo-Cy5
cleavage of azo linker on extended primer [4, 5]: complete cleavage
efficiency of primer strand extension [2]: ~100%

ddATP-7-Azo-Biotin
cleavage of azo linker on extended primer [4, 5]: complete cleavage
efficiency of primer strand extension [2]: ~100%

3′-O-t-Butyl-SS(DTM)-dATP-PEG4-Azo-Biotin [3′-O-t-butyl-SS-dATP-PEG4-Azo-Biotin]
cleavage of azo linker on extended primer ([4]; 25 mM sodium dithionite in 1×PBS, 37° C. for 10 min): can be cleaved efficiently
efficiency of primer strand extension [2]: ~100%
